Laboratory results taken from patent publication US12162890B2 (Novartis AG, priority 2015, dated 2024).

Target: HEK293 cells with stable expression of the GRIN1 gene and tetracycline-inducible expression of the GRIN2B gene (NMDA receptor, NR2B) (Homo sapiens, UniProt Q13224)
Test: Fluo-8 Ca2+ flux assay: reversal of Ro 25-6981-mediated suppression of the Ca2+ response to co-agonist (glutamate/glycine); note: test concentration or dose not given here
Type: cell-based
Conditions: reversal of the Ro 25-6981 suppression of the Ca2+ response to co-agonist (glutamate/glycine)

Chain of HEK293 cells with stable expression of the GRIN1 gene and tetracycline-inducible expression of the GRIN2B gene (NMDA receptor, NR2B) (Q13224 27-1484, other chains not shown): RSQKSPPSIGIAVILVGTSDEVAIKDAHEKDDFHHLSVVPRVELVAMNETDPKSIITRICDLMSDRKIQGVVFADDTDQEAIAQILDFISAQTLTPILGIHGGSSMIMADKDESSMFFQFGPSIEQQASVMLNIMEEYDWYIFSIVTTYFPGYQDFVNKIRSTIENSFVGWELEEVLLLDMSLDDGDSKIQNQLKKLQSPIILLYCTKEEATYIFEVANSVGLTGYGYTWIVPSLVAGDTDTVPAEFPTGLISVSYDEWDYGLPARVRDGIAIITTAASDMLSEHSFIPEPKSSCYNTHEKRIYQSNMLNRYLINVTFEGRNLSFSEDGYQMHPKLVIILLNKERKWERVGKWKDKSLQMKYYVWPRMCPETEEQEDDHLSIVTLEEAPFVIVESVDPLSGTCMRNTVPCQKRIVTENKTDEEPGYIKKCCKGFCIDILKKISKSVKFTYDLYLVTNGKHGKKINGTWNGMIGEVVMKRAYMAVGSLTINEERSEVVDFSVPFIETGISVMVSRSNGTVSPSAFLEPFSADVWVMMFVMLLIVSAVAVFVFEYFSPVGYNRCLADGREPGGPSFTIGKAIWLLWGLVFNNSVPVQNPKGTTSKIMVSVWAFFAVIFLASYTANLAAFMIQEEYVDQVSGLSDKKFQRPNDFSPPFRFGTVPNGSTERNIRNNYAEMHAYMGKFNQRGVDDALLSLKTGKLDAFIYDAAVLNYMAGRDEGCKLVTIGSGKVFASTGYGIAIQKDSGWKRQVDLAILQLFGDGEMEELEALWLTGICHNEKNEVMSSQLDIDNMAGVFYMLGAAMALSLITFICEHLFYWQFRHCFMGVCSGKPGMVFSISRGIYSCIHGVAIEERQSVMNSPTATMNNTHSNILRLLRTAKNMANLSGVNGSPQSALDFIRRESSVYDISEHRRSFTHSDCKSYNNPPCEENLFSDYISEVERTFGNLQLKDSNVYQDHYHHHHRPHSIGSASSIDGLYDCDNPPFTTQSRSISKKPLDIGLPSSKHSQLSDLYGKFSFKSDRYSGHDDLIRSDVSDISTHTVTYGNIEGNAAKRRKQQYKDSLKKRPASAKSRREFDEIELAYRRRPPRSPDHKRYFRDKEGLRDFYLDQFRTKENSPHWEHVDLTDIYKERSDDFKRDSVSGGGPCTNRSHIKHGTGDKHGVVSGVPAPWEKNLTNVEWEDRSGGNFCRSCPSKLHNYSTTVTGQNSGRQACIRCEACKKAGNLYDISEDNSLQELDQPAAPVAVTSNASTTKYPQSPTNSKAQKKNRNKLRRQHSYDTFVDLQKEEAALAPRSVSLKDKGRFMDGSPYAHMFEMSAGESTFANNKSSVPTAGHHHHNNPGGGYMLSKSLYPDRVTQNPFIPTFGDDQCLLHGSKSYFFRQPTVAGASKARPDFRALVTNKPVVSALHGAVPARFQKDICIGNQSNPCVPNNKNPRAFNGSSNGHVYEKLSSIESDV

| Structure (SMILES) | Response Recovered (%) |
| --- | --- |
| O=C(Cn1cnc2[nH]cc(-c3ccc(Cl)c(F)c3)c2c1=O)N1CCCC1 [Example 164, 5-(4-chloro-3-fluorophenyl)-3-(2-oxo-2-(pyrrolidin-1-yl)ethyl)-3H-pyrrolo[2,3-d]pyrimidin-4(7H)-one] | 48% |
| CCC1(F)CN(C(=O)Cn2ccc3scc(-c4cncc(Cl)n4)c3c2=O)C1 [Example 147, 3-(6-chloropyrazin-2-yl)-5-(2-(3-ethyl-3-fluoroazetidin-1-yl)-2-oxoethyl)thieno[3,2-c]pyridin-4(5H)-one] | −0.39% |
| Cn1cc(-n2cc(-c3ccc(F)c(Cl)c3)c3c(=O)n(CC(=O)N4CCC(F)C4)ccc32)cn1 (centres unmarked) [Example 235, 3-(3-chloro-4-fluorophenyl)-5-(2-(3-fluoropyrrolidin-1-yl)-2-oxoethyl)-1-(1-methyl-1H-pyrazol-4-yl)-1H-pyrrolo[3,2-c]pyridin-4(5H)-one] | 40% |
| O=C(Cn1ccn2c(C3CC3)nc(-c3ccc(F)c(Cl)c3)c2c1=O)N1CCC(F)C1 (centres unmarked) [Example 432, 1-(3-chloro-4-fluorophenyl)-3-cyclopropyl-7-(2-(3-fluoropyrrolidin-1-yl)-2-oxoethyl)imidazo[1,5-a]pyrazin-8(7H)-one] | 19% |
| O=C(Cn1ccc2[nH]cc(-c3cnc(Cl)c(C(F)(F)F)c3)c2c1=O)N1CC(F)C(F)C1 (centres unmarked) [Example 221, 3-(6-chloro-5-(trifluoromethyl)pyridin-3-yl)-5-(2-(3,4-difluoropyrrolidin-1-yl)-2-oxoethyl)-1H-pyrrolo[3,2-c]pyridin-4(5H)-one] | 43% |
| O=C(Cn1cnc2ccn(-c3ccc(Cl)cc3)c2c1=O)N1CC(F)(F)C1 [Example 374, 5-(4-chlorophenyl)-3-(2-(3,3-difluoroazetidin-1-yl)-2-oxoethyl)-3H-pyrrolo[3,2-d]pyrimidin-4(5H)-one] | 4% |
| O=C(Cn1nnc2scc(-c3ccc(Cl)c(C(F)(F)F)c3)c2c1=O)N1CC(F)(F)C1 [Example 333, 5-(4-chloro-3-(trifluoromethyl)phenyl)-3-(2-(3,3-difluoroazetidin-1-yl)-2-oxoethyl)thieno[2,3-d][1,2,3]triazin-4(3H)-one] | 13% |
| O=C(Cn1cc(CO)c2scc(-c3ccc(F)c(C(F)(F)F)c3)c2c1=O)N1CCC(F)C1 (centres unmarked) [Example 111, 3-(4-fluoro-3-(trifluoromethyl)phenyl)-5-(2-(3-fluoropyrrolidin-1-yl)-2-oxoethyl)-7-(hydroxymethyl)thieno[3,2-c]pyridin-4(5H)-one] | 97% |
| O=C(Cn1ccc2cccc(-c3ccc(F)c(Cl)c3)c2c1=O)N1CCC(F)C1 (centres unmarked) [Example 302, 8-(3-chloro-4-fluorophenyl)-2-(2-(3-fluoropyrrolidin-1-yl)-2-oxoethyl)isoquinolin-1(2H)-one] | 40% |
| O=C(Cn1cc(CO)c2scc(-c3ccc(F)c(Cl)c3)c2c1=O)N1CCC(F)C1 (centres unmarked) [Example 129, 3-(3-chloro-4-fluorophenyl)-5-(2-(3-fluoropyrrolidin-1-yl)-2-oxoethyl)-7-(hydroxymethyl) thieno[3,2-c]pyridin-4(5H)-one] | 39% |
| Cc1nc(-c2ccc(Cl)c(Cl)c2)c2c(=O)n(CC(=O)N3CCC(F)C3)ccn12 (centres unmarked) [Example 429, 1-(3,4-dichlorophenyl)-7-(2-(3-fluoropyrrolidin-1-yl)-2-oxoethyl)-3-methylimidazo[1,5-a]pyrazin-8(7H)-one] | 11% |
| O=C(Cn1cnc2ccn(-c3ccc(Cl)cc3)c2c1=O)N1CCCC1 [Example 376, 5-(4-chlorophenyl)-3-(2-oxo-2-(pyrrolidin-1-yl)ethyl)-3H-pyrrolo[3,2-d]pyrimidin-4(5H)-one] | 3% |
| O=C(Cn1cnc2ccn(-c3ccc(Cl)cc3)c2c1=O)N1CCC1 [Example 370, 3-(2-(azetidin-1-yl)-2-oxoethyl)-5-(4-chlorophenyl)-3H-pyrrolo[3,2-d]pyrimidin-4(5H)-one] | 4% |
| CC1(F)CN(C(=O)Cn2ccc3scc(-c4cnc(F)c(Cl)c4)c3c2=O)C1 [Example 19, 3-(5-chloro-6-fluoropyridin-3-yl)-5-(2-(3-fluoro-3-methylazetidin-1-yl)-2-oxoethyl)thieno[3,2-c]pyridin-4(5H)-one] | 35% |
| CC1(F)CN(C(=O)Cn2ccc3scc(-c4cnc(Cl)nc4)c3c2=O)C1 [Example 140, 3-(2-chloropyrimidin-5-yl)-5-(2-(3-fluoro-3-methylazetidin-1-yl)-2-oxoethyl)thieno[3,2-c]pyridin-4(5H)-one] | 3.1% |
| CC1(O)CN(C(=O)Cn2ccc3scc(-c4ccc(F)c(C(F)(F)F)c4)c3c2=O)C1 [Example 55, 3-(4-fluoro-3-(trifluoromethyl)phen-yl)-5-(2-(3-hydroxy-3-methylazetidin-1-yl)-2-oxoethyl)thieno[3,2-c]pyridin-4(5H)-one] | 14% |

| Structure (SMILES) | Response Recovered (%) |
| --- | --- |
| O=C(Cn1nnc2scc(-c3ccc(Cl)c(C(F)(F)F)c3)c2c1=O)N1CCCC1C(F)(F)F (centres unmarked) [Example 334, 5-(4-chloro-3-(trifluoromethyl)phenyl)-3-(2-oxo-2-(2-(trifluoromethyl)pyrrolidin-1-yl)ethyl)thieno[2,3-d][1,2,3]triazin-4(3H)-one] | 2% |
| O=C(Cn1cc(CO)c2scc(-c3ccc(Cl)c(Cl)c3)c2c1=O)N1CCC(F)C1 (centres unmarked) [Example 131, 3-(3,4-dichlorophenyl)-5-(2-(3-fluoropyrrolidin-1-yl)-2-oxoethyl)-7-(hydroxymethyl) thieno[3,2-c]pyridin-4(5H)-one] | 72% |
| CC1(F)CN(C(=O)Cn2ccc3scc(-c4ccc(F)c(C(F)(F)F)c4)c3c2=O)C1 [Example 43, 3-(4-fluoro-3-(trifluoromethyl)phen-yl)-5-(2-(3-fluoro-3-methylazetidin-1-yl)-2-oxoethyl)thieno[3,2-c]pyridin-4(5H)-one] | 160% |
| Cc1nc(-c2ccc(F)c(C(F)(F)F)c2)c2c(=O)n(CC(=O)N3CCC(F)C3)ccn12 (centres unmarked) [Example 427, 1-(4-fluoro-3-(trifluoromethyl)phenyl)-7-(2-(3-fluoropyrrolidin-1-yl)-2-oxoethyl)-3-methylimidazo[1,5-a]pyrazin-8(7H)-one] | 19% |
| Cc1nc(-c2ccc(F)c(Cl)c2)c2c(=O)n(CC(=O)N3CC(F)(F)C3)ccn12 [Example 430, 1-(3-chloro-4-fluorophenyl)-7-(2-(3,3-dilfuoroazetidin-1-yl)-2-oxoethyl)-3-methylimidazo[1,5-a]pyrazin-8(7H)-one] | 7.3% |
| O=C(Cn1cnc2[nH]cc(-c3ccc(F)c(Cl)c3)c2c1=O)N1CC(F)(F)C1 [Example 161, 5-(3-chloro-4-fluorophenyl)-3-(2-(3,3-difluoroazetidin-1-yl)-2-oxoethyl)-3H-pyrrolo[2,3-d]pyrimidin-4(7H)-onepyrrolo[2,3-d]pyrimidin-4(7H)-one] | 58% |
| CCC1(F)CN(C(=O)Cn2ccc3scc(-c4cnc(Cl)c(C)c4)c3c2=O)C1 [Example 85, 3-(6-chloro-5-methylpyridin-3-yl)-5-(2-(3-ethyl-3-fluoroazetidin-1-yl)-2-oxoethyl)thieno[3,2-c]pyridin-4(5H)-one] | 16% |
| O=C(Cn1ncc2scc(-c3ccc(Cl)c(C(F)(F)F)c3)c2c1=O)N1CCCC1 [Example 335, 3-(4-chloro-3-(trifluoromethyl)phenyl)-5-(2-oxo-2-(pyrrolidin-1-yl)ethyl)thieno[2,3-d]pyridazin-4(5H)-one] | 23% |
| Cc1cn(CC(=O)N2CCCC2)c(=O)c2c(-c3ccc(Cl)c(C(F)(F)F)c3)csc12 [Example 106, 3-(4-chloro-3-(trifluoromethyl)phenyl)-7-methyl-5-(2-oxo-2-(pyrrolidin-1-yl)ethyl)thieno[3,2-c]pyridin-4(5H)-one] | 76% |
| Cc1cc(-c2nc(C3CC3)n3ccn(CC(=O)N4CC(C)(F)C4)c(=O)c23)ccc1Cl [Example 443, 1-(4-chloro-3-methylphenyl)-3-cyclopropyl-7-(2-(3-fluoro-3-methylazetidin-1-yl)-2-oxoethyl)imidazo[1,5-a]pyrazin-8(7H)-one] | 120% |
| O=C(Cn1ccc2scc(-c3ccc(Cl)c(C(F)(F)F)c3)c2c1=O)N1CC(F)(F)C1 [Example 5, 3-(4-chloro-3-(trifluoromethyl)phenyl)-5-(2-(3,3-difluoroazetidin-1-yl)-2-oxoethyl)thieno[3,2-c]pyridin-4(5H)-one] | 139% |
| O=C(Cn1cnc2c(c(-c3ccc(Cl)c(C(F)(F)F)c3)cn2C2CC2)c1=O)N1CCCC1 [Example 190, 5-(4-chloro-3-(trifluoromethyl)phenyl)-7-cyclopropyl-3-(2-oxo-2-(pyrrolidin-1-yl)ethyl)-3H-pyrrolo[2,3-d]pyrimidin-4(7H)-one] | 71% |
| CC1(F)CN(C(=O)Cn2ccn3c(C4CC4)nc(-c4ccc(Cl)c(Cl)c4)c3c2=O)C1 [Example 435, 3-cyclopropyl-1-(3,4-dichlorophenyl)-7-(2-(3-fluoro-3-methylazetidin-1-yl)-2-oxoethyl)imidazo[1,5-a]pyrazin-8(7H)-one] | 120% |
| O=C(Cn1ccc2scc(-c3cnc(Cl)c(Cl)c3)c2c1=O)N1CCC(F)C1 (centres unmarked) [Example 12, 3-(5,6-dichloropyridin-3-yl)-5-(2-(3-fluoropyrrolidin-1-yl)-2-oxoethyl)thieno[3,2-c]pyridin-4(5H)-one] | 35% |
| O=C(Cn1ccc2scc(-c3ccc(Cl)c(Cl)c3)c2c1=O)N1CC(F)(C2CC2)C1 [Example 49, 5-(2-(3-cyclopropyl-3-fluoroazetidin-1-yl)-2-oxoethyl)-3-(3,4-dichlorophenyl)thien-o[3,2-c]pyridin-4(5H)-one] | 26% |
| COC1CN(C(=O)Cn2cnc3csc(-c4ccc(Cl)cc4)c3c2=O)C1 [Example 351, 5-(4-chlorophenyl)-3-(2-(3-methoxyazetidin-1-yl)-2-oxoethyl)thieno[3,4-d]pyrimidin-4(3H)-one] | 1% |
